The text below walks through data of patent US6875762B2, “Tetracyclic azepinoindole compounds” (Pfizer, priority 1999, dated 2005).

This experiment deals with T1, Human 5-HT2C receptor (Homo sapiens, UniProt P28335).
T1 construct: expressed in transfected cells; host or cells: HEK293 (HEK293-h5-HT2C-5 cell line), membranes
The experiment is described as follows: Test A: scintillation proximity radioligand binding assay with [3H]serotonin. Particulars: membranes of HEK293-h5-HT2C-5 cells, [3H]serotonin final 4 nM, IC50 converted by Cheng-Prusoff, Kd 7 nM. The protocol: The gene was inserted into expression vectors containing resistance genes as selectable markers. […] The receptor was used under license from D. J. Julius at Columbia University.
The HEK293-h5-HT2C-5 cell line was seeded from frozen stocks into DMEM high glucose salts medium supplemented with sodium pyruvate, Penicillin/Streptomycin solution, G418 (0.25 g/L), hygromycin B ([…]), and Fetal Bovine Serum (3%). […] At approximately 90% confluency, the cells were rinsed with ice-cold PBS and scraped from the NUNC plates using 3M squeegees. The cells were broken with a VirTishear homogenizer. The remaining particulate matter was removed by low-speed centrifugation. Finally, the membranes were concentrated by high-speed centrifugation and resuspended in binding buffer, 50 mM TRIS, 5 mM MgCl2, pH 7.4. The preparation was held in a water-ice slurry while a pilot binding assay was performed (1.5 hours), and then quick-frozen in aliquots appropriate for 1 tube for each 96-well assay plate.
Assays were performed in Wallac microtitre PET plates designed for the Wallac microBeta LSC. Binding reactions contained test compound (11 μl), [^3H]serotonin (124 Ci/mmol, 11 μl for final 4 nM) and bead-membrane mixture (178 μl). The test compound was replaced by water to determine total binding, or by mianserin (5 μM) to define non-specific binding.
The bead-membrane mixture was made by adding 100 mg Wheatgerm Agglutinin SPA beads (Amersham) and membrane preparation (2-5 mg protein) in a total of 8 ml binding buffer for each 96-well assay plate. The mixture was stirred gently for 30 minutes at room temperature, followed by centrifugation (1000 RPM, Beckman Accuspin FR) for 10 minutes. The supernatant, containing excess membrane, was aspirated, and the beads resuspended in 18.5 ml binding buffer for each assay plate. The washed bead-membrane mix was then poured into a reagent reservoir. The mixture was pipetted into the assay plate with a multi-channel pipetter, maintaining constant stirring during pipetting.
After the reactions were complete, the plates were sealed with plastic tape and placed on a gyrotory shaker (150 rpm) for 5 minutes. After shaking, room temperature incubation continued for 2 hours. Finally, the plates were loaded into counting cassettes and counted with the Wallac microBeta LSC.
Eleven half-log serial dilutions of test compounds were made in water using the PE/Cetus Pro/Pette pipetter. These dilutions were distributed to assay plates using the same instrument, followed by radioligand and the bead-membrane mixture prepared as described above. The specifically bound cpm obtained were fit to a one-site binding model using GraphPad Prism ver. 2.0.
In general terms: In a scintillation proximity assay essentially only radioactivity close to the scintillant gives light.

Where [1] appears, read: read-out: Receptor binding 5HT2c Ki.

SMILES strings stand for the structures. Where a name gives a salt, the structure may show the parent alone. Read-outs that look alike come from different tables or passages of the source.

T1 sequence (P28335 33-458): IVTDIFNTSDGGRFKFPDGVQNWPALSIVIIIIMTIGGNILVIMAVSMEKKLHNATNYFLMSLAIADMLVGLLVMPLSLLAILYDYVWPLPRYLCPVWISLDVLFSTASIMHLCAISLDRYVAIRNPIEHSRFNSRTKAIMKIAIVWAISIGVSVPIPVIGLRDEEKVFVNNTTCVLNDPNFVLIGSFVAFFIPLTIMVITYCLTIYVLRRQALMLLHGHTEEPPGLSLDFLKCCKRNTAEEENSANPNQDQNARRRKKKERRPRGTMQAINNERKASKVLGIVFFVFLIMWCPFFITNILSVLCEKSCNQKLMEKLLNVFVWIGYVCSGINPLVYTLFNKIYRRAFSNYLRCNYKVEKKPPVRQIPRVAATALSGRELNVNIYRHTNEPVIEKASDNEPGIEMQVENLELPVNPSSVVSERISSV

On to `c1cc2c3c(c1)c1c(n3CCO2)CCNCC1` [Example 21, 1,2,8,9,10,11-hexahydro-7H-azepino[4,5-b][1,4]oxazino[2,3,4-hi]indole hydrochloride], for which the Ki (usually the equilibrium dissociation constant of an inhibitor or competing ligand from its target) under setting [1] is 16 nM.

For the compound `CC1c2cccc3c4c(n(c23)C1C)CCNCC4` (stereo not drawn) [Example 18, 4,5-dimethyl-4,5,8,9,10,11-hexahydro-7H-azepino[4,5-b]pyrrolo[3,2,1-hi]indole hydrochloride], the Ki under setting [1] was found to be 52 nM.

On to `CC1Cc2cccc3c4c(n(c23)C1)CCNCC4` (stereo not drawn) [Example 6, 5-methyl-5,6,9,10,11,12-hexahydro-4H,8H-azepino[4′,5′:4,5]pyrrolo[3,2,1-ij]quinoline hydrochloride], for which the Ki under setting [1] was 44 nM.

Regarding `CC1Cc2cccc3c4c(n(c23)C1)CCNCC4` (single isomer, unassigned; (+)) [Example 10, (+)-5-methyl-5,6,9,10,11,12-hexahydro-4H,8H-azepino[4′,5′:4,5]pyrrolo[3,2,1-ij]quinoline hydrochloride], the Ki under setting [1] was 70 nM.

Regarding `Fc1cc2c3c(c1)c1c(n3CC2)CCNCC1` [Example 15, 2-fluoro-4,5,8,9,10,11-hexahydro-7H-azepino[4,5-b]pyrrolo[3,2,1-hi]indole hydrochloride], the Ki (Receptor binding 5HT2c Ki (nM)) worked out at 24 nM.

Regarding `Fc1cc2c3c(c1)c1c(n3CCO2)CCNCC1` [Example 23, 5-fluoro-1,2,8,9,10,11-hexahydro-7H-azepino[4,5-b][1,4]oxazino[2,3,4-hi]indole hydrochloride], the Ki under setting [1] worked out at 13 nM.

For `Clc1ccc2c3c1c1c(n3CCO2)CCNCC1` [Example 22, 6-chloro-1,2,8,9,10,11-hexahydro-7H-azepino[4,5-b][1,4]oxazino[2,3,4-hi]indole hydrochloride], under setting [1], the Ki came out at 2.3 nM.

Consider `CC1CCc2cccc3c4c(n1c23)CCNCC4` (single isomer, unassigned; (+)) [Example 8, (+)-6-methyl-5,6,9,10,11,12-hexahydro-4H,8H-azepino[4′,5′:4,5]pyrrolo[3,2,1-ij]quinoline hydrochloride], for which the Ki under setting [1] stood at 51 nM.

As for `c1cc2c3c(c1)c1c(n3C3CCCCC23)CCNCC1` (stereo not drawn) [Example 19, 2,3,4,5,8b,9,10,11,12,12a-decahydro-1H-azepino[4′,5′:4,5]pyrrolo[3,2,1-jk]carbazole hydrochloride], the Ki under setting [1] was 144 nM.

Take `c1cc2c3c(c1)c1c(n3CCS2)CCNCC1` [Example 27, 1,2,8,9,10,11-hexahydro-7H-azepino[4,5-b][1,4]thiazino[2,3,4-hi]indole hydrochloride]: the Ki under setting [1] worked out at 5.1 nM.

As to `CC1Cc2cccc3c4c(n1c23)CCNCC4` (stereo not drawn) [Example 17, 5-methyl-4,5,8,9,10,11-hexahydro-7H-azepino[4,5-b]pyrrolo[3,2,1-hi]indole hydrochloride], the affinity (Receptor binding 5HT2c Ki (nM)) corresponds to a Ki of 65 nM.

For the compound `c1cc2c3c(c1)c1c(n3CC2)CCNCC1` [Example 14, 4,5,8,9,10,11-hexahydro-7H-azepino[4,5-b]pyrrolo[3,2,1-hi]indole hydrochloride], the Ki (Receptor binding 5HT2c Ki (nM)) is 28 nM.

Turning to `Fc1ccc2c3c1c1c(n3CCO2)CCNCC1` [Example 25, 6-fluoro-1,2,8,9,10,11-hexahydro-7H-azepino[4,5-b][1,4]oxazino[2,3,4-hi]indole hydrochloride], under setting [1], the Ki is 8 nM.

In the case of `CC1CCc2cccc3c4c(n1c23)CCNCC4` (single isomer, unassigned; (-)) [Example 9, (−)-6-methyl-5,6,9,10,11,12-hexahydro-4H,8H-azepino[4′,5′:4,5]pyrrolo[3,2,1-ij]quinoline hydrochloride], the Ki under setting [1] turned out to be 26 nM.

Compound `CC1CCn2c3c(c4cccc1c42)CCNCC3` (single isomer, unassigned; (+)) [Example 12, (+)-4-methyl-5,6,9,10,11,12-hexahydro-4H,8H-azepino[4′,5′:4,5]pyrrolo[3,2,1-ij]quinoline hydrochloride] returned a Ki (Receptor binding 5HT2c Ki (nM)) of 41 nM.

`Fc1cc2c3c(c1)c1c(n3CCC2)CCNCC1` [Example 4, 2-fluoro-5,6,9,10,11,12-hexahydro-4H,8H-azepino[4′,5′:4,5]pyrrolo[3,2,1-ij]quinoline hydrochloride]: under setting [1], the Ki worked out at 83 nM.

With `Cc1ccc2c3c1c1c(n3CCO2)CCNCC1` [Example 20, 6-methyl-1,2,8,9,10,11-hexahydro-7H-azepino[4,5-b][1,4]oxazino[2,3,4-hi]indole hydrochloride], the Ki under setting [1] was found to be 3.8 nM.

The compound `COc1cc2c3c(c1)c1c(n3CC2)CCNCC1` [Example 16, 2-methoxy-4,5,8,9,10,11-hexahydro-7H-azepino[4,5-b]pyrrolo[3,2,1-hi]indole hydrochloride] came in with a Ki (Receptor binding 5HT2c Ki (nM)) of 361 nM.

As to `c1cc2c3c(c1)c1c(n3CCC2)CCNCC1` [Example 1, 5,6,9,10,11,12-hexahydro-4H,8H-azepino[4′,5′:4,5]pyrrolo[3,2,1-ij]quinoline hydrochloride], the inhibition constant Ki under setting [1] was 13 nM.

`Cc1cc2c3c(c1)c1c(n3CCO2)CCNCC1` [Example 24, 5-methyl-1,2,8,9,10,11-hexahydro-7H-azepino[4,5-b][1,4]oxazino[2,3,4-hi]indole hydrochloride] had a Ki (Receptor binding 5HT2c Ki (nM)) of 29 nM.

For `COc1ccc2c3c1c1c(n3CCC2)CCNCC1` [Example 3, 1-methoxy-5,6,9,10,11,12-hexahydro-4H,8H-azepino[4′,5′:4,5]pyrrolo[3,2,1-ij]quinoline hydrochloride], the Ki (Receptor binding 5HT2c Ki (nM)) came to 27 nM.

With `CC1CCc2cccc3c4c(n1c23)CCNCC4` (stereo not drawn) [Example 5, 6-methyl-5,6,9,10,11,12-hexahydro-4H,8H-azepino[4′,5′:4,5]pyrrolo[3,2,1-ij]quinoline hydrochloride], the Ki under setting [1] was found to be 33 nM.

For the compound `CC1Cn2c3c(c4cccc(c42)O1)CCNCC3` (stereo not drawn) [Example 26, 2-methyl-1,2,8,9,10,11-hexahydro-7H-azepino[4,5-b][1,4]oxazino[2,3,4-hi]indole hydrochloride], under setting [1], the Ki amounted to 29 nM.

Consider `CC1Cc2cccc3c4c(n(c23)C1)CCNCC4` (single isomer, unassigned; (-)) [Example 11, (−)-5-methyl-5,6,9,10,11,12-hexahydro-4H,8H-azepino[4′,5′:4,5]pyrrolo[3,2,1-ij]quinoline hydrochloride], for which, under setting [1], the Ki amounted to 96 nM.

`CC1CCn2c3c(c4cccc1c42)CCNCC3` (stereo not drawn) [Example 7, 4-methyl-5,6,9,10,11,12-hexahydro-4H,8H-azepino[4′,5′:4,5]pyrrolo[3,2,1-ij]quinoline hydrochloride] returned a Ki (Receptor binding 5HT2c Ki (nM)) of 77 nM.

`CC1CCn2c3c(c4cccc1c42)CCNCC3` (single isomer, unassigned; (-)) [Example 13, (−)-4-methyl-5,6,9,10,11,12-hexahydro-4H,8H-azepino[4′,5′:4,5]pyrrolo[3,2,1-ij]quinoline hydrochloride] displayed a Ki (Receptor binding 5HT2c Ki (nM)) of 45 nM.

Consider `Cc1cc2c3c(c1)c1c(n3CCC2)CCNCC1` [Example 2, 2-methyl-5,6,9,10,11,12-hexahydro-4H,8H-azepino[4′,5′:4,5]pyrrolo[3,2,1-ij]quinoline hydrochloride], for which, under setting [1], the Ki stood at 80 nM.
